Key:
[1] = Conformational analysis from intrinsic viscosity (ELLIPS1, Einstein-Simha shape factor); assay type: physicochemical; conditions: for axial ratio (a/b) oblate / axial ratio (a/b) prolate: ELLIPS1; for viscosity shape function ν: [η] = 3.2 mL/g; for swelling ratio vs/υ¯ through dynamic hydration: maximum value, corresponds to a/b = 1 (sphere), confirmed by SingleHYDFIT
Excerpt: In order to interpret this in terms of a molecular shape account needs to be taken of the contribution of the swollen specific volume of the assembly in solution vs (which will be swollen due to a time-averaged association with the surrounding solvent through dynamic hydrogen bonding and other associative processes)[43]:6 [η]=ν.vs
Equation (6) ν is the Einstein-Simha shape factor. vs is likely to be higher for the glycopeptide than for proteins due to the relatively large proportion of carbohydrate which tends to have a greater affinity for solvent. In Table 1 values of the shape factor ν , and their corresponding ellipsoid of revolution axial ratios a/b were calculated based on either a prolate or oblate model, using the routine ELLIPS1 (Harding et al. 1997) for 3 cases of vs/ υ¯ , including the (unlikely) case of no swelling vs/ υ¯ = 1. The maximum value for vs/ υ¯ ~ 2, which corresponds to the minimum value of a/b = 1 (i.e. a sphere, Fig. 6), and this seems the most likely scenario.

[2] = below that value a gel might be formed in solution; cited from earlier work
Protocol: Although it is important to explore how teicoplanin binds to the Lipid II moiety regardless of its phenotypes, the knowledge of the biological form of teicoplanin in an aqueous solution is of importance. Teicoplanin and its aglycon derivatives[25] use their long […] chain to attach themselves to the targeted sites. It is known that the minimum volume of solvent required to dissolve 400 mg of teicoplanin is 3 ml because, below that value, a gel might be formed in solution[10]. Teicoplanin derivatives have also been reported to create nano-sized aggregates in aqueous solution[26]. This gelati ...

[3] = Intrinsic viscosity, capillary (rolling ball) viscometry; assay type: physicochemical; conditions: 10.2 mg/mL; 25.0 °C; rolling ball viscometer AMVn; Solomon-Ciuta relation; phosphate-chloride buffer pH 6.8, I = 0.10 M
Protocol: Teicoplanin solutions were analysed using the capillary viscometer AMVn (Anton-Paar, Graz, Austria). This measurement was conducted at a temperature of 25.0 °C based on the rolling ball viscosity method. With a 1.4 mm steel ball moving in a 1.6 mm diameter glass capillary, the flow times (averaged over repeat measurements) of the solvent and solution were then determined. The relative viscosity was calculated from the equation:4 ηrel=ρ·t/ρ0·t0=ηsp+1 where ηsp is the specific viscosity. Then the intrinsic viscosity η was estimated from the Solomon-Ciuta relation[52] at a concentration of 10.2 mg/ml, which gave a sufficient flow time increment between solvent and solution:5 η≈1/c·2ηsp-2lnηrel^1/2

SARS-CoV virus = conditions: cited from earlier work
[4] = Sedimentation velocity in the analytical ultracentrifuge (SV-AUC); assay type: physicochemical; conditions: for concentration above which the sedimentation coefficient distribution is unimodal (assembled form): SEDFIT
Protocol: (§1) Teicoplanin samples were prepared in a phosphate-chloride buffered saline solution (PBS, or “Paley buffer”) at pH ~ 6.8 and, by adding NaCl, adjusted to an ionic strength of I = 0.1 mol/L[38].
Experiments to determine sedimentation coefficients and sedimentation coefficient distributions were performed at a temperature of 20.0 °C (at which standardised values are easily calculated) using an Optimal XL-I analytical ultracentrifuge (Beckman Instruments, Palo Alto, CA, USA) with Rayleigh interference optics. Teicoplanin samples (400 μL ) and reference solvent (PBS, 420 μL ) were injected into channels of the 12 mm double sector epoxy cells with sapphire windows. These cells were then centrifuged at 47,500 rpm for a run time of ~ 24 h and the data obtained were analysed in SEDFIT using the least squares, ls-g*(s) processing method. This generates the sedimentation coefficient distribution, g(s) versus sT,b , where sT,b is the sedimentation coefficient, at temperature T in buffer b. The s value in Svedberg units, S = 10^-13 seconds, was then normalised to standard conditions (density ρ20,w and viscosity η20,w of water at 20.0 °C) to give s20,w from the Eq. [43]:2 s20,w=1-υ¯·ρ20,w/1-υ¯·ρT,b·ηT,b/η20,w·sT,b where ρT,b and ηT,b are the density and the viscosity of buffer b at temperature T, respectively.

[5] = Hydrodynamic radius by dynamic light scattering (DLS); assay type: physicochemical; conditions: 12.5 mg/mL; 20.0 °C; scattering angle 173°; Zetasizer Nano-S; averaged over several measurements
Protocol: Dynamic or quasi-elastic light scattering (DLS or QLS) measurements were made on the fixed scattering angle Zetasizer Nano-S system (Malvern instruments Ltd., Malvern UK) equipped with a 4mW He–Ne laser at a wavelength of 632.8nm[46],[47]. Samples in solution were measured in a quartz cuvette at 20.0 °C. A scattering angle of 173° was used, and collected in manual mode, requiring a measurement duration of 90 s, averaged over several measurements. The resulting data were analysed using the “Zetasizer Software (Version 7.1)” (Malvern Instruments Ltd., Malvern, UK), providing a volume distribution of translational diffusion coefficients based on a form of the CONTIN program. The viscosity of the buffer used was calculated using a solvent builder interface and takes the effects of buffer salts into account. The z-average hydrodynamic radii rz (nm), were evaluated from the z-average translational diffusion coefficients Dz by the Stokes–Einstein Eq. [47]:3 rz=kBT/{6πηoDz} where kB is the Boltzmann constant, T is the absolute temperature and η is the viscosity of the medium. […] (ii) the teicoplanin in its monomeric and multi-meric form were quasi-spheroidal and not asymmetric so there was no angular dependence of the measured Dz, values on anisotropic rotational diffusion effects—i.e. an extrapolation to zero angles was not necessary.

[6] = Sedimentation equilibrium in the analytical ultracentrifuge (SE-AUC, SEDFIT-MSTAR); assay type: physicochemical; conditions: M* method, 0-10 mg/mL, corresponds to the unimer
[7] = Partial specific volume from solution/solvent densities (digital density meter); assay type: physicochemical; conditions: c = 10.2 mg/mL; Anton-Paar digital density meter; PBS
Protocol: The partial specific volume υ¯ from solution/ solvent densities was determined using an Anton-Paar (Graz, Austria) digital density meter, and application of:1 υ¯=1/ρ0·1-ρ-ρ0/c at a concentration, c, of 10.2 mg/mL, and where ρ and ρ0 are the densities of the solution and solvent, respectively.

[8] = Global hydrodynamic fit SingleHYDFIT (E2 protocol); assay type: physicochemical; conditions: assumed molar mass of 18-mer (33835 Da) and of 19-mer (35714 Da), same result for both
Excerpt: To check this, we use a global fitting approach known as SingleHYDFIT[54] which combines intrinsic viscosity data with sedimentation coefficient and dynamic light scattering (hydrodynamic radius) data together, along with the molecular weight and partial specific volume. It involves the minimization of a global fitting function (Fig. 7). The E2 protocol (ratio of ellipsoid) was chosen and run twice: once with an assumed molar mass equivalent of an 18-mer (33835 Da) and once again with an assumed molar mass of 19-mer (35714 Da). Delta (Δ) was plotted against axial ratio, where values < 1 mean oblate and > 1 mean prolate (Fig. 7).

[9] = Sedimentation equilibrium in the analytical ultracentrifuge (SE-AUC, SEDFIT-MSTAR); assay type: physicochemical; conditions: for concentration from which the self-association (Mw,app) plateaus: range 0-10 mg/mL, hinge point and M* methods
Protocol: as §1
Sedimentation equilibrium experiments were used to obtain equilibrium concentration distribution profiles for absolute molecular weight measurement. An Optima XL-I analytical ultracentrifuge was also employed but at a lower temperature of 7 °C because of the longer duration of a sedimentation equilibrium experiment compared to sedimenation veloicity. To characterise the self-association/aggregation of teicoplanin, 12 mm double sector epoxy cells were loaded with the same volumes (100 μL ) of both solution and solvent and run at 45,000 rpm for a run time of ~ 48 h. Records of concentration distributions of teicoplanin at equilibrium were subsequently analysed using the model-independent SEDFIT-MSTAR algorithm. Since the non-ideality of teicoplanin is negligible we estimated that apparent weight average molar masses Mw,app were approximately equal to the true weight average molar masses Mw. The multiple concentrations used effectively represent repeats for the sedimentation equilibrium (and sedimentation velocity) experiments.
To determine the weight-average molar masses Mw of teicoplanin, the M* extrapolation method[45] and hinge point analysis, both incorporated in the sedimentation equilibrium-based SEDFIT–MSTAR software[44] were used. […] Rayleigh interference optics provides an accurate record of a sedimentation equilibrium concentration profile c(r) vs r, which means that the local concentration c(r) at the radial position r (cm) is from the rotation centre. M*(r) is a useful operational point average molar mass parameter. M*(r → rb) = Mw is the weight average molar mass over the whole macromolecular distribution, where r is the radial position at the cell base. This method is particularly advantageous for polydisperse/ or self-associating systems. As an additional check, the “hinge point method” (the value of the point weight average molar mass, Mw(r) at the “hinge point” in the sedimentation equilibrium distribution, i.e. the radial position in the cell where the local concentration c(r) = the original loading concentration) provides another estimate for the whole distribution molar mass Mw[44].

[10] = without a lipid chain; cited from earlier work
CTSL-dependent viruses = conditions: cited from earlier work
[11] = assumed vs/υ¯ = 1 (no swelling)
[12] = phosphate-chloride buffer pH 6.8, I = 0.10 M, 7 °C, SEDFIT-MSTAR

teicoplanin A2
swollen specific volume vs [1, 11]: 0.64 mL/g
axial ratio (a/b) oblate [1, 11]: 5.4
axial ratio (a/b) prolate [1, 11]: 4.3
viscosity shape function ν [1, 11]: 5.0
swollen specific volume vs ([1]; assumed vs/υ¯ = 1.5): 0.96 mL/g
axial ratio (a/b) oblate ([1]; assumed vs/υ¯ = 1.5): 2.8
axial ratio (a/b) prolate ([1]; assumed vs/υ¯ = 1.5): 2.5
viscosity shape function ν ([1]; assumed vs/υ¯ = 1.5): 3.3
swollen specific volume vs ([1]; assumed vs/υ¯ = 2): 1.28 mL/g
axial ratio (a/b) oblate ([1]; assumed vs/υ¯ = 2): 1
axial ratio (a/b) prolate ([1]; assumed vs/υ¯ = 2): 1
viscosity shape function ν ([1]; assumed vs/υ¯ = 2): 2.5
swelling ratio vs/υ¯ through dynamic hydration [1]: ~ 2
swelling ratio vs/υ¯ through dynamic hydration ([1]; listed as teicoplanin): 2
minimum volume of solvent required to dissolve 400 mg [2]: 3 mL
intrinsic viscosity [η] [3]: 3.2 ± 0.1 mL/g
effect on cell entry of the SARS-CoV virus (SARS-CoV virus): inhibited cell entry
s-value (not normalised) of teicoplanin dissolved in 6 M GuHCl ([4]; 6 M GuHCl, SV-AUC): ~ 0.7 S
s20,w of teicoplanin dissolved in 6 M GuHCl ([4]; 6 M GuHCl, SV-AUC, normalised to water at 20.0 °C): 1.17 ± 0.01 S
sedimentation coefficient s20,w of the self-associated assembly (upper extrapolated value) ([4]; phosphate-chloride buffer pH 6.8, I = 0.10 M, 20.0 °C, 47,500 rpm, ~24 h, Rayleigh interference optics, SEDFIT ls-g*(s), s vs c plot, 0-5 mg/mL): ~ 4.65 S
concentration above which the sedimentation coefficient distribution is unimodal (assembled form) ([4]; phosphate-chloride buffer pH 6.8, I = 0.10 M, 20.0 °C): > 500 µg/mL
concentration above which the sedimentation coefficient distribution is unimodal (assembled form) ([4]; phosphate-chloride buffer pH 6.8, I = 0.10 M, 20.0 °C, listed as teicoplanin): > 500 µg/mL
sedimentation coefficient, lower extrapolated value (predicted value for a spheroidal unimer) ([4]; phosphate-chloride buffer pH 6.8, I = 0.10 M, 20.0 °C, s vs c plot extrapolated to low concentration): ~ 0.7 S
concentration below which the assembly dissociates (separation, bimodality) ([4]; phosphate-chloride buffer pH 6.8, I = 0.10 mol/L, 20.0 °C): < 500 µg/mL
z-average hydrodynamic radius rz [5]: ~ 3.2 nm
weight-average molar mass Mw in 6 M GuHCl [6]: 1.75 ± 0.35 kDa
partial specific volume υ¯ [7]: 0.64 ± 0.01 mL/g
axial ratio of the assembly from SingleHYDFIT [8]: 1.0 ± 0.0
number of monomers in the assembly (mers), M* method ([9]; from plateau Mw 33,000 g/mol, buffer pH 6.8, I = 0.10 M): ~ 18 mers
number of monomers in the assembly (mers), hinge point method ([9]; from plateau Mw 35,400 g/mol, buffer pH 6.8, I = 0.10 M): ~19 ± 1 mers
plateau weight average molar mass Mw,app, M* method ([9]; phosphate-chloride buffer pH 6.8, I = 0.10 M, 7 °C, 45,000 rpm, ~48 h, SEDFIT-MSTAR, c from 1 mg/mL): 33,000 ± 1000 g/mol
plateau weight average molar mass Mw,app, hinge point method ([9]; phosphate-chloride buffer pH 6.8, I = 0.10 M, 7 °C, 45,000 rpm, ~48 h, SEDFIT-MSTAR, c from 1 mg/mL up to 10 mg/mL): 35,400 ± 1000 g/mol
apparent weight average molar mass Mw extrapolated to zero concentration (M* method) [9, 12]: 1.9 ± 0.1 kDa
weight average molar mass extrapolated to zero concentration, hinge point method Mw(rhinge) [9, 12]: 2.7 ± 0.1 kDa
concentration from which the self-association (Mw,app) plateaus ([9]; phosphate-chloride buffer pH 6.8, I = 0.10 M): > 1000 µg/mL
concentration from which the self-association (Mw,app) plateaus ([9]; phosphate-chloride buffer pH 6.8, I = 0.10 M, listed as teicoplanin): 1000 µg/mL
size of the self-associated assembly (n-mer), overall ([9]; phosphate-chloride buffer pH 6.8, I = 0.10 mol/L, AUC and viscometry combined): 18–19 mer

teicoplanin aglycon
self-association in solution [10]: dimerise weakly

vancomycin
antiviral activity against CTSL-dependent viruses (CTSL-dependent viruses): cannot express antiviral activity

Reference: PMC9895975 (Scientific Reports, 2023)
